Patent US20040077591A1, “Histone deacetylase inhibitors for the treatment of multiple sclerosis, amyotrophic lateral sclerosis and Alzheimer's Disease” (The Brigham and Women's Hospital, Inc., priority 2002, published 2004)
Marks after values point to notes of the source that are not given here.

Experiments:
ras transformed cells = conditions: cited from earlier work
[1] = tested on: experimental autoimmune encephalomyelitis (EAE) in mice; experiment: MOG-induced EAE in mice, clinical disability scoring; type: in vivo, C57BL/6 female mice; conditions: for EAE clinical disability: TSA 7.5 mg/kg/dose/d i.p., apparent in the chronic (days 20-40) phase
Source text: FIG. 1—Efficacy of HDAC inhibitor treatment in reducing the clinical manifestations of experimental autoimmune encephalomyelitis (EAE) in mice. Mean clinical scores reflect reduced clinical disability by TSA in the neurodegenerative phase of EAE (● TSA-treated; ◯ vehicle-treated) (*P<0.05 by Fisher's protected least significant difference (PLSD) test). The remission phase lasted from days 19 to 34 following disease induction in a first experiment, days 21 to 32 in a second experiment. Animals were scored for signs of disability using the following widely used scale: 1, limp tail or isolated weakness of gait without limp tail; 2, partial hind leg paralysis; 3, total hind leg or partial hind and front leg paralysis and/or urinary incontinence; 4, total hind leg and partial front leg paralysis; 5, moribund or dead animal (with minor modifications from Issazadeh et al. (1998)). The definitions used were: (1) mean peak remission: mean of maximal score reached during remission, and (2) mean % days of severity: mean % of days with scores ≧2.
Experimental autoimmune encephalomyelitis (EAE) is the most widely accepted animal model for multiple sclerosis. […] Medications that currently modify the disease course in humans also modify the disease course in the animal model. The inventor has used the C57BL/6J mice (female mice 6-8 weeks old from Jackson Laboratories) for the experiments, which involve the administration of myelin oligodendrocyte glycoprotein (MOG), a myelin antigen, that induces autoimmunity against the brain tissue. EAE can also be induced in laboratory mice and rats using other myelin antigens.
Efficacy of HDAC inhibitor treatment in reducing the clinical manifestations of experimental autoimmune encephalomyelitis (EAE) in mice. The inventor injected 6-8 week-old C57BL/6 female mice (Jackson Laboratories, Bar Harbor, Me.) subcutaneously with 150 μg myelin oligodendrocyte glycoprotein (MOG)35-55 peptide (Quality Controlled Biochemicals, Hopkinton, Mass.) in PBS and CFA containing 0.4 mg of Mycobacterium tuberculosis (H37Ra, Difco, Detroit, Mich.), and i.p. on days 1 and 3 with 200 ng Pertussis (List Biological, Campbell, Calif.). TSA (7.5 mg/kg/dose/d i.p.) (Biomol, Plymouth Meeting, Pa. and Wako, Richmond, Va.) in PBS (9):DMSO (1) vehicle was begun on day 4. Ten mice were given vehicle and 9 were given TSA in a first experiment, wherease a second experiment utilized 15 per group.

EAE mice spinal cords = experiment: DNA microarray analysis of EAE mice spinal cords; type: in vivo
Source text: (2) Modulation of genes involved in neuroprotection and immune regulation by TSA. a) Microarrays detect protective genes regulated by TSA in EAE mice spinal cords. The inventor pooled RNA from tissues of three animals in each group (TSA treated and vehicle-treated) for DNA microarray analysis. As shown (Table 3), intraperitoneal TSA led to the enhanced expression of mRNAs for the antioxidant glutathione peroxidase (Gpx1) and the neuroprotective insulin-like growth factor 2 (Igf2). […] Intraperitoneal TSA also led to decreased expression in EAE spinal cords of the chemokine receptor CCR6, immunoglobulin V(H)II, the vascular homeostasis-related phospholipase A2, and upregulation of the immunomodulatory factor interferon-α2 (Ifna2), the latter with known beneficial effects in MS patients.
Microarrays detect protective genes co-regulated by TSA in EAE mice spinal cords and spleens.

CNS tissue from EAE mice = experiment: Quantitative RT-PCR on CNS tissue of EAE mice; type: in vivo
Method: FIG. 8—Identification of gene expression changes induced by HDAC inhibitors in vivo, using reverse transcriptase polymerase chain reaction (RT-PCR). CNS and spleen tissue samples from EAE mice were used to isolate RNA. One step real time quantitative RT-PCR (QRT-PCR) was then performed in triplicate for each sample (n=3 per group of mice) with SYBR Green and an ABI Prism 7700 Sequence Detection System (PE Applied Biosystems, Foster City, Calif.).
d) Quantitative RT-PCR (QRT-PCR) on CNS and spleen tissues from TSA-treated EAE mice detects numerous genes modulated by this HDAC inhibitor. […] QRT-PCR unveiled new CNS effects of TSA (FIG. 8), including upregulation of the neuronal trait genes sodium channel Nav1.2 and dopamine β hydroxylase (Dbh), and downregulation of the pro-apoptotic factors caspase 2 (casp2) and apoptosis inducing factor (Aif). In spleen tissues, QRT-PCR confirmed elevation of Ifna7 and Adipsin and downregulation of Igκ V22 mRNAs, and unveiled downregulation by TSA of multiple inflammatory factors, such as IL-8 receptor, IL-2 receptor, IL-12, and the costimulatory molecule CD28, from pathways implicated in MS (Glabinsk and Ransohoff, 2001; Dangond, 2002).

## CC(/C=C/C(=O)NO)=C\[C@@H](C)C(=O)c1ccc(N(C)C)cc1 [TSA, Trichostatin A]
Ras transformed cells
  hyperacetylation: induce hyperacetylation
  morphology of ras transformed cells: reversion of ras transformed cells to normal morphology
[1]; TSA 7.5 mg/kg/dose/d i.p. from day 4, P = 0.0011 vs vehicle
  Mean % Days of Severity (mean % of days with scores ≧2): 33.9 ± 4.3** %
[1]; TSA 7.5 mg/kg/dose/d i.p. from day 4, two separate exp. pooled
  Days of Onset (Clinical EAE): 13 ± 0.5 days
[1]
  EAE clinical disability: decrease in EAE clinical disability
[1]; listed as Trichostatin A
  EAE clinical disability: effective in reducing EAE in mice
[1]; clinical score scale 1-5, TSA 7.5 mg/kg/dose/d i.p. from day 4, P = 0.0036 vs vehicle
  Mean Peak Remission Phase (mean of maximal score reached during remission): 1.8 ± 0.1*
EAE mice spinal cords; Table 5, probe set AB010557, i.p. TSA, EAE mice spinal cord
  Fold Δ CNS, Paired box gene 4 (Pax4): −12.5 fold
EAE mice spinal cords; Table 5, probe set AF009011, i.p. TSA, EAE mice spinal cord
  Fold Δ CNS, Axin: 4.9 fold
EAE mice spinal cords; Table 5, probe set AF036008, i.p. TSA, EAE mice spinal cord
  Fold Δ CNS, DNA methyltransferase (Dnmt1): −8.8 fold
EAE mice spinal cords; Table 5, probe set AV108173, i.p. TSA, EAE mice spinal cord
  Fold Δ CNS, Metaxin homolog: −11.6 fold
EAE mice spinal cords; Table 5, probe set D10849, i.p. TSA, EAE mice spinal cord
  Fold Δ CNS, Thromboxane A2 receptor (Tbxa2r): −5.2 fold
EAE mice spinal cords; Table 5, probe set L06444, i.p. TSA, EAE mice spinal cord
  Fold Δ CNS, Growth differentiation factor (Gdf9): 3.5 fold
EAE mice spinal cords; Table 5, probe set M35131, i.p. TSA, EAE mice spinal cord
  Fold Δ CNS, Neurofilament heavy (Nefh): 2.3 fold
EAE mice spinal cords; Table 5, probe set M95604, i.p. TSA, EAE mice spinal cord
  Fold Δ CNS, Snail homolog 1 (Snail1): 5.3 fold
EAE mice spinal cords; Table 5, probe set U24160, i.p. TSA, EAE mice spinal cord
  Fold Δ CNS, Dishevelled 2 (Dvl2): −2.1 fold
EAE mice spinal cords; Table 5, probe set U58974, i.p. TSA, EAE mice spinal cord
  Fold Δ CNS, Rearranged in lymphoma (Frat1): 4.5 fold
EAE mice spinal cords; Table 5, probe set U62386, i.p. TSA, EAE mice spinal cord
  Fold Δ CNS, Immunoglobulin H and L variable: −2.1 fold
EAE mice spinal cords; Table 5, probe set U70017, i.p. TSA, EAE mice spinal cord
  Fold Δ CNS, Cyclin D-interacting Dmp1 (Dmtf1): 5.4 fold
EAE mice spinal cords; Table 5, probe set U77967, i.p. TSA, EAE mice spinal cord
  Fold Δ CNS, Neuronal PAS domain 1 (Npas1): 2 fold
EAE mice spinal cords; Table 5, probe set U85714, i.p. TSA, EAE mice spinal cord
  Fold Δ CNS, Phospholipase C-beta-1b (Picb1): 3.4 fold
EAE mice spinal cords; Table 5, probe set X03920, i.p. TSA, EAE mice spinal cord
  Fold Δ CNS, Glutathione peroxidase (Gpx1): 3 fold
EAE mice spinal cords; Table 5, probe set X16678, i.p. TSA, EAE mice spinal cord
  Fold Δ CNS, Immunoglobulin kappa chain (1gk-V20): −3.3 fold
EAE mice spinal cords; Table 5, probe set X55781, i.p. TSA, EAE mice spinal cord
  Fold Δ CNS, Paired box gene 2 (Pax2): 7.1 fold
EAE mice spinal cords; Table 5, probe set Y07609, i.p. TSA, EAE mice spinal cord
  Fold Δ CNS, Max binding protein ROX (Mnt): −2.2 fold
EAE mice spinal cords; probe set 92500, spinal cord, I.P. TSA vs vehicle-treated EAE mice
  Fold Change, Ten-m3: −5.4 fold
EAE mice spinal cords; probe set 92782, spinal cord, I.P. TSA vs vehicle-treated EAE mice
  Fold Change, Thymopoietin (Tmpo): −6.4 fold
EAE mice spinal cords; probe set 92833, spinal cord, I.P. TSA vs vehicle-treated EAE mice
  Fold Change, Histidine ammonia lyase (Ha): 5.3 fold
EAE mice spinal cords; probe set 93275, spinal cord, I.P. TSA vs vehicle-treated EAE mice
  Fold Change, SH3 domain protein 2B: 4.5 fold
EAE mice spinal cords; probe set 93378, spinal cord, I.P. TSA vs vehicle-treated EAE mice
  Fold Change, Hox-3.1: −5.3 fold
EAE mice spinal cords; probe set 94521, spinal cord, I.P. TSA vs vehicle-treated EAE mice
  Fold Change, Cdk inhibitor p19: −5.3 fold
EAE mice spinal cords; probe set 94717, spinal cord, I.P. TSA vs vehicle-treated EAE mice
  Fold Change, IFN-alpha-2 (1fna2): 5.6 fold
EAE mice spinal cords; probe set 97540, spinal cord, I.P. TSA vs vehicle-treated EAE mice
  Fold Change, Histocompatibility 2 D region locus 1: 7.4 fold
EAE mice spinal cords; probe set 97680, spinal cord, I.P. TSA vs vehicle-treated EAE mice
  Fold Change, Murinoglobulin (Mug): −7.2 fold
EAE mice spinal cords; probe set 97970, spinal cord, I.P. TSA vs vehicle-treated EAE mice
  Fold Change, Transferrin-like p97: −5.7 fold
EAE mice spinal cords; probe set 98623, spinal cord, I.P. TSA vs vehicle-treated EAE mice
  Fold Change, Insulin-like growth factor 2 (1gf2): 5.2 fold
EAE mice spinal cords; probe set 99326, spinal cord, I.P. TSA vs vehicle-treated EAE mice
  Fold Change, Phospholipase A2 (Pla2): −6.4 fold
EAE mice spinal cords; probe set 99899, spinal cord, I.P. TSA vs vehicle-treated EAE mice
  Fold Change, CCR6: −7.3 fold
EAE mice spinal cords; probe set 100362, spinal cord, I.P. TSA vs vehicle-treated EAE mice
  Fold Change, Ig V(H)II: −4.9 fold
EAE mice spinal cords; probe set 101676, spinal cord, I.P. TSA vs vehicle-treated EAE mice
  Fold Change, Glutathione peroxidase (Gpx1): 6.9 fold
EAE mice spinal cords; probe set 104364, spinal cord, I.P. TSA vs vehicle-treated EAE mice
  Fold Change, Mapkapk5: −6.5 fold
CNS tissue from EAE mice; CNS and spleen samples, vs vehicle-treated EAE animals, n=3 per group
  fold change of key genes altered, QRT-PCR: > 1.5 fold
CNS tissue from EAE mice; CNS, TSA-treated EAE mice
  Gpx1 mRNA by QRT-PCR: elevated
  Ifna2 mRNA by QRT-PCR: elevated
  Mug mRNA by QRT-PCR: downregulated
  Tmpo mRNA by QRT-PCR: downregulated
  apoptosis inducing factor (Aif) mRNA by QRT-PCR: downregulation
  caspase 2 (casp2) mRNA by QRT-PCR: downregulation
  dopamine β hydroxylase (Dbh) mRNA by QRT-PCR: upregulation
  sodium channel Nav1.2 mRNA by QRT-PCR: upregulation
  thromboxane A2 receptor (Tbxa2r) mRNA by QRT-PCR: downregulated
